This is an account of results in patent US9464007B2, “Antifungal wallboards and building materials and methods for the production thereof” (priority 2004, dated 2016).

What all share (format): cell-based
Assay [1] deals with Stachybotrys chartarum. Put plainly: Fungal growth on agar medium containing fungicide, petri dish, visual assessment. The note with it: for EC50: 528 h, read-out: Concentration required for 50% Activity; for EC50 / Concentration required for 80% Activity: after 22 days at 25° C. On the procedure:
(§1) A fungal growth medium was made comprising yeast extract (4 g) agar (8 g), magnesium sulphate (0.2 g), sodium nitrate (2.4 g), potassium chloride (0.2 g), potassium dihydrogen orthophosphate (0.6 g), glycerol (8 ml), distilled water (390 ml). Fungicides as set out in Tables 1 to 4 were added at levels of 5000, 100, 10, 1, 0.1 and 0.01 mg fungicide/liter of growth medium to give six different growth medium compositions for each fungicide. These growth media containing the fungicide were each put into petri dishes.
(§2) Cladosporium cladosporoides, Oligoporus placenta, Stachybotrys chartarum and Memnionella echinata were separately propagated on Luria agar to suppress sporulation and mycelial plugs were transferred upside down onto the petri dishes containing the growth medium.
(§3) A visual assessment was made of the surface of the petri dishes. The result recorded was the percentage of the surface that remained free of fungus. This was recorded as percentage activity
(§4) For each fungicide, a graph was drawn of percentage activity against concentration of fungicide in the growth medium. From this graph, the concentrations of fungicide required to achieve 50%, 80% and 95% activity was estimated. These figures are given in the results tables.
1. Stachybotrys chartarum; Results after 22 days at 25° C.

The test system of assay [2] is Memnionella echinata. Described as above. The note with it: after 23 days at 25° C.; for EC50: 552 h, read-out: Concentration required for 50% Activity. On the procedure: as §1, §2, §3, §4
2. Memnionella echinata; Results after 23 days at 25° C.

The subject of assay [3] is Cladosporium cladosporioides. Described as above. The note with it: for EC50: 624 h, read-out: Concentration required for 50% Activity; for EC50 / Concentration required for 80% Activity: after 26 days at 20° C. On the procedure: as §1, §2, §3, §4
3. Cladosporium cladosporioides; Results after 26 days at 20° C.

In assay [4] the test system is Oligoporus placenta. Described as above. On the procedure: as §1, §2, §3, §4
4. Oligoporus placenta; Results.

Assay [5] relates to Penicillium citrinum. Put plainly: Synergy testing of 2-way mixtures, 24 well plates. Particulars: P. citrinum, PPZ + DFZ test. On the procedure: (§5) For synergism testing of the 2-way mixtures 100 ul of each fungicide were filled into the 24 well plates (8 different rates) and 800 ul of 0.3% PDA media containing the spore suspension was added (see above). Different ratios of the 2 fungicide rates were tested at the same time.
(§6) Alternaria tenuissima, Penicillium citrinum, Stachybotrys chartarum, Aspergillus niger and Aureobasidium pullulans were separately cultivated on PDA media to […] sporulation. Spore suspensions were produced for each fungi.
(§7) For the mixtures of different fungicides the synergism was calculated based on the Colby equation, which is described below: […]
(§8) The fungicidal action to be expected, We, for a given combination of two fungicides can be calculated as follows (see COLBY, S. R. “Calculating synergistic and antagonistic response of herbicide combinations”. Weeds 15, pages 20-22; 1967): We=X+[Y×(100−X)/100] wherein:
(§9) If the activity actually observed is greater than the expected value We, there is a synergistic effect.
(§10) All rates below are expressed as mg ai/l (i.e. ppm).

Assay [6] relates to Aspergillus niger. Put plainly: Synergy testing of 2-way mixtures, 24 well plates. The note with it: A. niger; for inh % (DFZ alone): rate (DFZ) 0.8 mg ai/l. On the procedure: as §5, §6, §7, §8, §9, §10
In assay [7] the test system is Aureobasidium pullulans. The assay can be described thus: Synergy testing of 2-way mixtures, 24 well plates. Particulars: A. pullulans. On the procedure:
as §5, §6, §7, §8, §9, §10

Assay [8] relates to Alternaria tenuissima. The assay can be described thus: Liquid culture assay on 24 well plates, solo ai (EC95/MIC). Particulars: A. tenuissima; for EC95: 24° C., 3-6 days; for MIC: Alternaria tenuissima, rates 0-100 mg ai/l, mean values of n = 5, read-out: MIC Minimal Inhibition concentration. On the procedure: as §6
(§11) Test method used: liquid culture assay on 24 well plates.
(§12) For solo (i.e. single) ai testing the formulated fungicide (100 ul) was filled into the 24 well plates (8 different rates: 100-0.05 mg ai/l final volume as described above) and 100 ul distilled water was added. Afterwards 800 ul of 0.3% PDA media was added to the plate. The spore suspension of the specific fungi was added to this media in advance containing approx. 100.000 spores/ml. The 24 well plates were sealed and incubated at 24° C.
(§13) Dependent on the growth properties of each organisms, the evaluation was done after 3 to 6 days, when the surface of the check well was covered with mycelium. The evaluation was performed by assessing the growth of the fungi related to the check growth. The results are expressed as % activity relative to the check (values of 0-100% growth). Afterwards the results were converted in % growth inhibition. EC95 values and also MIC (minimal inhibition concentration) values were derived for each compound.
(§14) For each solo compound a graph was drawn of percentage inhibition against the concentration of the fungicide. […] Also the concentration that gave the minimum inhibition concentration was derived as MIC value

In assay [9] the test system is Aspergillus niger. The description is as above. Particulars: A. niger; for EC95: 24° C., 3-6 days; for MIC: Aspergillus niger, rates 0-100 mg ai/l, mean values of n = 5, read-out: MIC Minimal Inhibition concentration. On the procedure:
as §6, §11, §12, §13, §14

Assay [10] has as its system Aureobasidium pullulans. The assay is described as above. Particulars: A. pullulans; for EC95: 24° C., 3-6 days; for MIC: Aureobasidium pullulans, rates 0-100 mg ai/l, mean values of n = 5, read-out: MIC Minimal Inhibition concentration. On the procedure: as §6, §11, §12, §13, §14
Assay [11] has as its system Penicillium citrinum. Described as above. The note with it: P. citrinum; for EC95: 24° C., 3-6 days; for MIC: Penicillium citrinum, rates 0-100 mg ai/l, mean values of n = 5, read-out: MIC Minimal Inhibition concentration. On the procedure:
as §6, §11, §12, §13, §14

The subject of assay [12] is Stachybotrys chartarum. The description is as above. Particulars: S. chartarum; for EC95: 24° C., 3-6 days; for MIC: Stachybotrys chartarum, rates 0-100 mg ai/l, mean values of n = 5, read-out: MIC Minimal Inhibition concentration. On the procedure: as §6, §11, §12, §13, §14

Converted amounts (≈) assume the structure as drawn. “And” between values parts separate entries of the source, which are not always exact repeats. Identical values can stand only once. Where only a bound is given, the exact number is not on record here.

With `CCCC1COC(Cn2cncn2)(c2ccc(Cl)cc2Cl)O1` (stereo not shown) [Propiconazole], the figures for the “Concentration required for 95% Activity” value in assay [1], in assay [3] and in assay [4] were 360 mg/L, 4.5 mg/L and 0.4 mg/L, respectively. Also, the EC50 is 15 µg/mL (≈ 43.8 µM) in assay [1], 88 µg/mL (≈ 257 µM) in [2] and 0.19 µg/mL (≈ 0.555 µM) in assay [3]. The “Concentration required for 80% Activity” value in [1] is 49 mg/L; in assay [2], over 100 mg/L; in assay [3], 1.7 mg/L. Also, in [5] (rate (PPZ) 0.8 mg ai/l), the “inh % (PPZ alone)” value stood at 70%.

With `CC1COC(Cn2cncn2)(c2ccc(Oc3ccc(Cl)cc3)cc2Cl)O1` (stereo not shown) [Difenoconazole], the “Concentration required for 95% Activity” value in assay [1] is 23 mg/L; in [3] it was 0.79 mg/L; in assay [4], under 0.1 mg/L. Moreover, the figures for the EC50 in assay [1], in assay [2] and in assay [3] were 0.68 µg/mL (≈ 1.67 µM), 5.4 µg/mL (≈ 13.3 µM) and 0.04 µg/mL (≈ 0.0985 µM), respectively. In addition, the entries for the “Concentration required for 80% Activity” value in assay [1], in assay [2] and in assay [3] were 3.5 mg/L, 43 mg/L and 0.28 mg/L, respectively. Besides, the “inh % (DFZ alone)” value in assay [6] (DFZ + TBZ test) is 10%; in assay [6] (PPZ + DFZ test), 30%; in assay [7] (rate (DFZ) 0.05 mg ai/l, PPZ + DFZ test), 10%; in assay [7] (rate (DFZ) 0.2 mg ai/l, DFZ + FDL test), 70%; in [7] (rate (DFZ) 0.2 mg ai/l, DFZ + TBZ test, listed as DFZ), 70% and 90%; in [7] (rate (DFZ) 0.2 mg ai/l, PPZ + DFZ test), 70%. Further, the “inh % (DFZ alone)” value turned out to be 90% in [7] (rate (DFZ) 0.8 mg ai/l, DFZ + CDL test); 90% in [7] (rate (DFZ) 0.8 mg ai/l, DFZ + TBZ test); 90% in [7] (rate (DFZ) 1.6 mg ai/l, DFZ + CDL test); 90% in assay [7] (rate (DFZ) 1.6 mg ai/l, DFZ + TBZ test); 70% in assay [7] (rate (DFZ) 3.1 mg ai/l, DFZ + CDL test); 70% in assay [7] (rate (DFZ) 3.1 mg ai/l, DFZ + FDL test). In addition, the “inh % (DFZ alone)” value was 70% in assay [7] (rate (DFZ) 3.1 mg ai/l, DFZ + TBZ test); 50% in [7] (rate (DFZ) 3.1 mg ai/l, PPZ + DFZ test); 0% in [5] (rate (DFZ) 0.05 mg ai/l); 10% in [5] (rate (DFZ) 0.2 mg ai/l); 30% in [5] (rate (DFZ) 0.8 mg ai/l).

Regarding `Cc1cc(C2CC2)nc(Nc2ccccc2)n1` [Cyprodinil], the EC95 was over 100 mg ai/l in [8]; 7.4 mg ai/l in [9]; over 100 mg ai/l in [10]; over 100 mg ai/l in assay [11]; 46 mg ai/l in [12]. Moreover, the MIC in assay [8] is over 100 µg/mL; in [9], 12.5 µg/mL (≈ 55.5 µM); in [10], over 100 µg/mL; in assay [11], over 100 µg/mL; in assay [12] it was 50 µg/mL (≈ 222 µM). Besides, the “inh % (CDL alone)” value was 0% in assay [7] (rate (CDL) 0.8 mg ai/l); 10% in assay [7] (rate (CDL) 1.6 mg ai/l); 10% in assay [7] (rate (CDL) 3.1 mg ai/l); 30% in [7] (rate (CDL) 12.5 mg ai/l); 30% in assay [7] (rate (CDL) 50 mg ai/l); 30% in [7] (rate (CDL) 100 mg ai/l).

As for `c1ccc2[nH]c(-c3cscn3)nc2c1` [Thiabendazole], the “Concentration required for 95% Activity” value in assay [1] was 91 mg/L; in [3], 8 mg/L; in assay [4] it was over 5000 mg/L. Besides, the EC50 came to 17 µg/mL (≈ 84.5 µM) in [1], 28 µg/mL (≈ 139 µM) in assay [2] and 0.78 µg/mL (≈ 3.88 µM) in [3]. Besides, the “Concentration required for 80% Activity” value in assay [1] was found to be 49 mg/L; in assay [2], 65 mg/L; in assay [3] it was 3.5 mg/L. Also, the EC95 in [8] was over 100 mg ai/l; in assay [9], 3.1 mg ai/l; in [10], 15 mg ai/l; in assay [11], 0.72 mg ai/l; in assay [12] it was 46 mg ai/l. Further, the MIC in [8] was over 100 µg/mL; in assay [9] it was 3.1 µg/mL (≈ 15.4 µM); in [10] it was 50 µg/mL (≈ 248 µM); in assay [11] it was 0.8 µg/mL (≈ 3.98 µM); in assay [12], 50 µg/mL (≈ 248 µM). In addition, the “inh % (TBZ alone)” value in assay [6] (rate (TBZ) 1.6 mg ai/l) came out at 10%; in assay [7] (rate (TBZ) 12.5 mg ai/l), 70%.
